Results published in patent US20030109546A1, “Treatment of psychotic disorders comprising co-therapy with anticonvulsant derivatives and atypical antipsychotics” (priority 2001, published 2003).

Key:
schizophrenia [1] = assay: Example 3 case study: augmentation of clozapine treatment; type: in vivo, human
Text: The patient was a morbidly obese person, who was first hospitalized in 1966 for psychotic symptoms, leading to a psychiatric diagnosis of schizophrenia. Their primary symptoms consisted of a set of strange and elaborate ideas about transmitting their thoughts to others, thoughts that they had invented “invisible steel” which was being used by the CIA and aliens, and a high degree of suspiciousness about the discriminatory intent of their clergyman and the local police. They denied any overt hallucinations, although they acknowledged “weird noises” associated with aliens attempting to contact them. At initial hospitalization, the patient was also profoundly confused and disorganized in their thought processes. Over the next two decades they were hospitalized four more times with essentially this same clinical picture, eventually being admitted in 1989 to a state hospital for long-term treatment where they remain to this day.
During their five hospitalizations the patient was treated with a variety of anti-psychotic medications, often in various combinations and dosages. In 1994 they were characterized as being treatment refractory according to the Kane criteria and enrolled in an NIMH sponsored study of three different doses of clozapine. As a participant in this study the patient received 100, 300, 600 mg, each for a 3-month period.
The patient was nonetheless continued on a 100 mg dose of clozapine, with the intent of using a variety of different augmentation strategies to possibly improve their clinical state. […] Throughout this period, the patient's strange and bizarre ideas persisted. They remained emotionally withdrawn, and required regular PRN medication to reduce their agitation on the ward.
Toward the end of the year 2000, the patient was treated with a drug regimen of 100 mg of clozapine, 2 mg of risperidone, and 750 mg of valproic acid. At this time, the patient agreed to augment their treatment with topiramate. The valproic acid was gradually withdrawn, and on Dec. 5, 2000 the patient was started on 50 mg of topiramate. The topiramate was increased at a rate of 50 mg per week up to a daily dosage of 200 mg where they remained for over four months. Within the first 2-3 weeks of topiramate treatment several important clinical changes were observed. […] Rather than being very certain about their ability to transmit thought to others they now are not sure that this is possible. They were also no longer certain that they actually invented “invisible steel”, but instead mostly only believed that they once thought it, although occasionally the delusional belief breaks though into their thinking. […] Second, as a result of treatment with topiramate the patient's agitation was decreased and PRN medication for agitation was no longer required.

schizoaffective disorder = assay: Example 1 case study: topiramate added to olanzapine-containing regimen; type: in vivo, human
Text: The patient was a single person, diagnosed with schizoaffective disorder, who presented with a variety of problems including disorganized behavior, suspiciousness, ideas of reference, stereotyped and obsessional thinking, lack of motivation, poor hygiene, poverty of speech, oppositional behavior and intermittent suicide attempts. The patient spent virtually the entire day in bed and was awake through the night. […] Despite continuous psychiatric and pharmacological treatment, the patient remained substantially disabled by withdrawal, apathy, poverty of speech, poor hygiene, anhedonia and suspiciousness. […] In addition, the patient was seen weekly in individual psychotherapy. There were no additional active medical problems. The patient was started on topiramate with dosages increased over a period of six weeks to 400 mg/day. […] In addition, the patient's residual positive symptoms, including primary suspiciousness and ideas of reference, were improved and the patient became less fearful of interacting with other. Patient's social functioning was improved, with the patient able to hold part-time employment. […] The patient maintained their part-time employment and engaged in productive social activity several times a week. […] (Lorazepam was removed with sustained improvement.)

schizophrenia [2] = assay: Example 2 open label pilot study on topiramate as adjunctive therapy in schizophrenia; type: in vivo, human; details: Patient 1
Protocol: Results from Open Label Pilot Study on Topiramate as Adjunctive Therapy in the Treatment of Schizophrenia
The patient was a person who met DSM-IV diagnostic criteria for chronic undifferentiated schizophrenia. […] The patient had been maintained on a stable regimen of 20 mg olanzapine prior to initiation of the study. […] Although the patient lived in a group home with other residents, they preferred to spend most of their free time alone, watching television or staying in their room, and went to bed between 7 and 8 o'clock each night. The patient had limited social interactions in the partial hospitalization program, initiating contact with only a few friends. The patient was intrusive during groups and was unable to empathize with others within the group.
The patient was begun on topiramate at an initial dose of 25 mg/day, titrating to an optimal dosage level of 175 mg/day, which was given in two divided doses during an eight week maintenance medication phase of a clinical trial.
They also became less stereotyped in their speech, with very infrequent references to their previous recurrent theme of golf. After 12 weeks of adjunctive therapy with topiramate, the patient also appeared more realistic about their golfing skills, stating than they were an “average” golfer, as opposed to their previous assertions about winning several club tournaments.
The patient also resumed going to bed around 6:30 or 7:00 pm each night.

[3] = test system: schizophrenia, undifferentiated type; assay: Example 4 case study: topiramate added to haloperidol and risperidone; type: in vivo, human
Text: The patient was a person, who was first hospitalized in 1983 on an involuntary basis-due to their inability to care for themself. Upon admission, they were described as paranoid, suspicious, agitated, and delusional, and was given the diagnosis of schizophrenia, undifferentiated type. They expressed persecutory delusions saying that the Mafia was going to hurt them. They heard voices telling them that someone was going to rape their parent. After one year of hospitalization, they were discharged into the community, where they soon became unstable resulting in two suicide attempts by hanging and two more short-term hospitalizations. In 1988 the patient was admitted into a state hospital for long-term treatment where they remain to this day. Over the past decade or more, their clinical picture had remained unchanged. They had been treated with numerous anti-psychotic medications, including the newer a typical medicines with little or no benefit. Their high level of agitation and persecutory delusions often propelled them into confrontations with staff and other patients, and they were regularly treated with PRN medications or placed into seclusion for their behavior. […] The topiramate dosage was titrated at a rate of 50 mg per week up to a daily dosage of 150 mg, at which dose the patient remained for a period of 4 months. Within the first month of treatment with topiramate several important clinical changes began to emerge. […] Within 1-2 weeks, the patient was no longer in seclusion and the use of PRN medication for agitation became very rare. Second, the patient's expressions persecutory delusions or suspiciousness decreased, and they were able to join into group activities on the unit.

schizophrenia [4] = assay: Example 2 open label pilot study on topiramate as adjunctive therapy in schizophrenia; type: in vivo, human
[5] = test system: simple and complex partial seizures and secondarily generalized seizures; details: adjunctive therapy or monotherapy; cited from earlier work
seizures = details: several rodent models of epilepsy; cited from earlier work
kindled epilepsy = details: animal model of kindled epilepsy; cited from earlier work
[6] = topiramate up to 400 mg/day added to olanzapine-containing regimen
[7] = topiramate 175 mg/day added to 20 mg olanzapine
[8] = topiramate 25 to 175 mg/day added to 20 mg olanzapine
[9] = topiramate 50 to 200 mg daily added to 100 mg clozapine, 2 mg risperidone
[10] = period of treatment that included topiramate
[11] = topiramate 50 to 150 mg daily added to haloperidol and risperidone

Cc1nc2n(c(=O)c1CCN1CCC(c3noc4cc(F)ccc34)CC1)CCCC2 [risperidone, 3-[2-[4-(6-fluoro-1,2-benzisoxazol-3-yl)piperidino]ethyl]-2-methyl-6,7,8,9-tetrahydro-4H-pyrido-[1,2-a]pyrimidin-4-one]
adverse event when added to clozapine treatment (schizophrenia [1]; standard dose added to 100 mg clozapine): severe tremors | effect when added to clozapine treatment (schizophrenia [1]; standard doses added to 100 mg clozapine): little effect | benefit of clozapine augmentation with low dose risperidone (schizophrenia [1]; study in 2000): lack of treatment benefit

CC1(C)O[C@@H]2[C@@H](CO[C@@]3(COS(N)(=O)=O)OC(C)(C)O[C@@H]23)O1 [topiramate, 2,3:4,5-bis-O-(1-methylethylidene)-β-D-fructopyranose sulfamate]
maintenance of improvement (schizoaffective disorder; after 5 months, topiramate decreased to 300 mg/day): improvements maintained | maintenance of improvement (schizoaffective disorder; after 10 months, 300 mg topiramate, 7.5 mg olanzapine, 400 mg fluvoxamine, 1 mg lorazepam daily): improvement was still sustained | maintenance of improvement (schizoaffective disorder; after more than 2 years, 300 mg topiramate, 7.5 mg olanzapine, 400 mg fluvoxamine daily): remained improved | negative symptoms (eye contact, attention, concentration, poverty of speech, grooming, hygiene, withdrawal) (schizoaffective disorder; topiramate increased over six weeks to 400 mg/day, added to fluvoxamine, Depakote, lorazepam, olanzapine 10 mg, over 8 weeks): significant improvement | residual positive symptoms (suspiciousness, ideas of reference) (schizoaffective disorder; [6]): improved | social functioning (schizoaffective disorder; [6]): improved | change in the Positive or General Scales of the PANSS (schizophrenia [2]; [7]): did not show any consistent, significant change | decrease in the Negative Scale score (PANSS) from baseline (schizophrenia [2]; [7]): 7 points | tolerability (schizophrenia [2]; [8]): well tolerated | vital signs and laboratory values (schizophrenia [2]; [8]): remained within the normal range | Negative Scale score after discontinuation of topiramate (schizophrenia [2]; upon completion of the study protocol): increase in the Negative Scale score | clinical state (opinion of the treatment team) (schizophrenia [1]; addition of topiramate): clear and important degree of improvement | level of suspiciousness (schizophrenia [1]; [9]): decreased | thought organisation / conversation (schizophrenia [1]; [9]): able to engage in a logical conversation | agitation (schizophrenia [1]; topiramate 50 to 200 mg daily added to 100 mg clozapine, 2 mg risperidone, PRN medication no longer required): decreased | level of preoccupation with delusional thoughts (schizophrenia [1]; topiramate 50 to 200 mg daily added to 100 mg clozapine, 2 mg risperidone, within first 2-3 weeks): obviously reduced | intensity of positive symptoms (auditory hallucinations, delusions of persecution) [3, 10]: reduced in occurrence and severity | social withdrawal [3, 10]: less socially withdrawn | expressions of persecutory delusions or suspiciousness [3, 11]: decreased | negative symptoms [3, 11]: fewer negative symptoms | level of agitation ([3]; topiramate 50 to 150 mg daily added to haloperidol and risperidone, within first month): reduced dramatically | response with regards to negative symptoms (schizophrenia [4]; Patients 2 & 3, adjunctive topiramate): did not respond significantly | positive symptoms (schizophrenia [4]; Patients 2 & 3, over the course of the trial): decreases in positive symptoms | negative symptoms (schizophrenia [4]; one of Patients 2 & 3, fluctuated during drug maintenance period): limited decrease | side effect potentially attributable to topiramate (schizophrenia [4]; second of Patients 2 & 3, topiramate 100 mg/day): difficulties with verbal fluency and word finding | negative symptoms (schizophrenia [4]; second of Patients 2 & 3, topiramate 100 mg/day lowered to 75 mg/day, dropped from study): significant decrease | efficacy in treating simple and complex partial seizures and secondarily generalized seizures [5]: effective | seizure block (seizures): effectively block seizures | seizure block (kindled epilepsy): effectively block seizures

CCCC(CCC)C(=O)O [Depakote, divalproex sodium]
benefit when added to clozapine treatment (schizophrenia [1]; up to 5000 mg added to clozapine, 1999): little benefit

CN1CCN(C2=Nc3cc(Cl)ccc3Nc3ccccc32)CC1 [clozapine, 8-chloro-11-(4-methyl-1-piperazinyl)-5H-dibenzo[b,e][1,4]diazepine]
adverse event (schizophrenia [1]; 900 mg of clozapine): led to a seizure | response to treatment (schizophrenia [1]; clozapine 100, 300, 600 mg, each for 3 months (NIMH study)): did not show any meaningful response
